Target: T1, SpoIVB (sporulation factor IV B protease) (Bacillus subtilis, UniProt P17896, S378A)
T1 construct: truncated SpoIVB (residues Thr75-Ser426), N-terminal 6 × His and mMBP fusion tags
Test: microscale thermophoresis (MST), RED-NHS labelled protein
Type: binding

T1 sequence (P17896 75-426 S378A): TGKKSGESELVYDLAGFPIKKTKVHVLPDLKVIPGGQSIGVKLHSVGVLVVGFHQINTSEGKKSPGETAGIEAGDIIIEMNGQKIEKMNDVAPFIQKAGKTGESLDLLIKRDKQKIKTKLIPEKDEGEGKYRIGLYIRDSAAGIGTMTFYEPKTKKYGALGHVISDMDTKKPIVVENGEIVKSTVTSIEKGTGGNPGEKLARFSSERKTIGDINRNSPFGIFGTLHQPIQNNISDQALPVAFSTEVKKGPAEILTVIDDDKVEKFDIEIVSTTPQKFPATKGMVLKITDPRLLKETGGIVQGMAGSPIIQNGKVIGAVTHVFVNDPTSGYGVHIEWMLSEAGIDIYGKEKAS

N=C(N)c1ccccc1 [benzamidine]
Kd: 660 ± 28 µM
